{"source": "ChEMBL document CHEMBL6153094", "about": "“Rationally designed highly amphipathic antimicrobial peptides demonstrating superior bacterial selectivity relative to the corresponding α-helix peptide” (Eur J Med Chem, 2025)", "key": {"Pseudomonas aeruginosa [1]": {"system": "Pseudomonas aeruginosa", "test": "Resistance fold, ratio of MIC for Pseudomonas aeruginosa ATCC 27853 measured after 20 passages in presence of gentamicin to MIC for Pseudomonas aeruginosa ATCC 27853 measured immediately in presence of gentamicin", "assay_type": "functional"}, "Staphylococcus aureus [2]": {"system": "Staphylococcus aureus", "test": "Antibacterial activity against Staphylococcus aureus ATCC 25923 incubated for 18 hrs in presence of MgCl2 by Mueller-Hinton broth based assay", "assay_type": "functional, organism-based"}, "Klebsiella pneumoniae [3]": {"system": "Klebsiella pneumoniae", "test": "Antibacterial activity against Klebsiella pneumoniae ATCC 700603 infected in male Balb/c mouse model of pneumonia assessed as decrease in inflammatory cell infiltration in […] at 2.5 mg/kg, ip administered at 4 and 12 hrs post-infected and measured after 24 hrs by H and E staining based analysis", "assay_type": "functional, organism-based", "conditions": "time 20.0 hrs"}, "Pseudomonas aeruginosa [4]": {"system": "Pseudomonas aeruginosa", "test": "Antimicrobial activity against multi-drug resistant Pseudomonas aeruginosa clinical isolate 124 assessed as concentration required to eliminate 90% bacteria incubated for 18 hrs by broth-microdilution method", "assay_type": "functional"}, "Pseudomonas aeruginosa [5]": {"system": "Pseudomonas aeruginosa", "test": "Bactericidal activity against Pseudomonas aeruginosa ATCC 27853 assessed as bacterial eradication at 2 times of MIC measured within 30 mins by time-kill kinetics assay", "assay_type": "functional, organism-based"}, "Cell membrane [6]": {"system": "Cell membrane", "test": "Disruption of outer membrane integrity in Pseudomonas aeruginosa ATCC 27853 assessed as increase in fluorescence intensity at 2 times of MIC measured for 12 mins by NPN uptake assay", "assay_type": "subcellular"}, "Staphylococcus aureus [7]": {"system": "Staphylococcus aureus", "test": "Antibacterial activity against methicillin-resistant Staphylococcus aureus ATCC 33591 infected in male Balb/c mouse model of full thickness skin wound assessed as reduction in bacterial load in skin at 1 mg/ml pre-infected with bacteria for 1 hrs followed by compound administration at 1,24,48 and 72 hrs post infection and measured 60 hrs post infection by agar plate method", "assay_type": "functional, organism-based", "conditions": "time 59.0 hrs"}, "Pseudomonas aeruginosa [8]": {"system": "Pseudomonas aeruginosa", "test": "Antibacterial activity against Pseudomonas aeruginosa ATCC 27853 incubated for 18 hrs in presence of MgCl2 by Mueller-Hinton broth based assay", "assay_type": "functional, organism-based"}, "Staphylococcus aureus [9]": {"system": "Staphylococcus aureus", "test": "Antimicrobial activity against methicillin-drug resistant Staphylococcus aureus clinical isolate 54 assessed as concentration required to eliminate 90% bacteria incubated for 18 hrs by broth-microdilution method", "assay_type": "functional"}, "Klebsiella pneumoniae [10]": {"system": "Klebsiella pneumoniae", "test": "Antibacterial activity against Klebsiella pneumoniae ATCC 700603 infected in male Balb/c mouse model of pneumonia assessed as decrease in decrease in TNF-alpha level in lung at 2.5 to 10 mg/kg, ip administered at 4 and 12 hrs post-infected and measured after 24 hrs by ELISA", "assay_type": "functional, organism-based", "conditions": "dose 2.5-10 mg/kg, time 20.0 hrs"}, "Staphylococcus aureus [11]": {"system": "Staphylococcus aureus", "test": "Induction of morphological changes in Staphylococcus aureus ATCC 25923 assessed as membrane disruption at 2 times of MIC incubated for 30 to 120 mins by SEM analysis", "assay_type": "functional, organism-based", "conditions": "time 30-120 min"}, "Staphylococcus aureus [12]": {"system": "Staphylococcus aureus", "test": "Antibiofilm activity in Staphylococcus aureus ATCC 25923 assessed as inhibition of biofilm formation at 1/2 times of MIC incubated for 24 hrs by crystal violet staining based analysis relative to control", "assay_type": "functional"}, "Klebsiella pneumoniae [13]": {"system": "Klebsiella pneumoniae", "test": "Antibacterial activity against Klebsiella pneumoniae ATCC 700603 infected in male Balb/c mouse model of pneumonia assessed as decrease in decrease in IL-6 level in lung at 2.5 to 10 mg/kg, ip administered at 4 and 12 hrs post-infected and measured after 24 hrs by ELISA", "assay_type": "functional, organism-based", "conditions": "dose 2.5-10 mg/kg, time 20.0 hrs"}, "Staphylococcus aureus [14]": {"system": "Staphylococcus aureus", "test": "Bactericidal activity against Staphylococcus aureus ATCC 25923 at 2 times of MIC incubated for 18 hrs in presence of 20 microg/ml of trypsin by absorbance based assay", "assay_type": "functional, organism-based"}, "Staphylococcus aureus [15]": {"system": "Staphylococcus aureus", "test": "Antibacterial activity against Staphylococcus aureus ATCC 25923 assessed as fold change in MIC incubated for 18 hrs in presence of 2.5% serum by broth microdilution method", "assay_type": "functional"}, "Pseudomonas aeruginosa [16]": {"system": "Pseudomonas aeruginosa", "test": "Antibiofilm activity in Pseudomonas aeruginosa ATCC 27853 assessed as inhibition of biofilm formation at 1 times of MIC incubated for 24 hrs by crystal violet staining based analysis relative to control", "assay_type": "functional"}, "Pseudomonas aeruginosa [17]": {"system": "Pseudomonas aeruginosa", "test": "Induction of morphological changes in Pseudomonas aeruginosa ATCC 27853 assessed as membrane disruption at 2 times of MIC incubated for 30 to 120 mins by SEM analysis", "assay_type": "functional, organism-based", "conditions": "time 30-120 min"}, "Staphylococcus aureus [18]": {"system": "Staphylococcus aureus", "test": "Antimicrobial activity against methicillin-drug resistant Staphylococcus aureus clinical isolate 74 assessed as concentration required to eliminate 90% bacteria incubated for 18 hrs by broth-microdilution method", "assay_type": "functional"}, "Pseudomonas aeruginosa [19]": {"system": "Pseudomonas aeruginosa", "test": "Antibacterial activity against Pseudomonas aeruginosa ATCC 27853 assessed as inhibition of bacterial growth compound pretreated with 256 microg/ml of LPS for 1 hrs followed by bacterial addition and measured after 18 hrs by absorbance based assay", "assay_type": "functional, organism-based"}, "Pseudomonas aeruginosa [20]": {"system": "Pseudomonas aeruginosa", "test": "Antimicrobial activity against Pseudomonas aeruginosa ATCC 27853 assessed as inhibition of visible bacterial growth incubated for 18 hrs by broth microdilution method", "assay_type": "functional"}, "Staphylococcus aureus [21]": {"system": "Staphylococcus aureus", "test": "Antimicrobial activity against methicillin-drug resistant Staphylococcus aureus clinical isolate 936 assessed as concentration required to eliminate 90% bacteria incubated for 18 hrs by broth-microdilution method", "assay_type": "functional"}, "Pseudomonas aeruginosa [22]": {"system": "Pseudomonas aeruginosa", "test": "Synergistic antimicrobial activity against gentamicin-resistant Pseudomonas aeruginosa ATCC 27853 assessed as fractional inhibitory concentration index incubated for 18 hrs in presence of gentamicin by checkerboard microdilution method", "assay_type": "functional"}, "Pseudomonas aeruginosa [23]": {"system": "Pseudomonas aeruginosa", "test": "Bactericidal activity against Pseudomonas aeruginosa ATCC 27853 assessed as bacterial eradication at 1 times of MIC measured after 60 mins by time-kill kinetics assay", "assay_type": "functional, organism-based"}, "DNA": {"system": "DNA", "test": "Binding affinity to Pseudomonas aeruginosa ATCC 27853 DNA at 8 times of MIC measured after 30 mins by agarose gel electrophoresis", "assay_type": "nucleic-acid assay"}, "Cell membrane [24]": {"system": "Cell membrane", "test": "Induction of inner membrane permeabilization in Escherichia coli ML-35 ATCC 43837 assessed as increase in […] measured for 135 mins by ONPG based analysis", "assay_type": "subcellular"}, "Staphylococcus aureus [25]": {"system": "Staphylococcus aureus", "test": "Antibacterial activity against Staphylococcus aureus ATCC 25923 assessed as inhibition of bacterial growth at 2 times of MIC incubated for 18 hrs in presence of <2 microg/ml of chymotrypsin by absorbance based assay", "assay_type": "functional, organism-based"}, "Pseudomonas aeruginosa [26]": {"system": "Pseudomonas aeruginosa", "test": "Antibacterial activity against Pseudomonas aeruginosa ATCC 27853 assessed as fold change in MIC incubated for 18 hrs in presence of NaCl by Mueller-Hinton broth based assay", "assay_type": "functional"}, "Staphylococcus aureus [27]": {"system": "Staphylococcus aureus", "test": "Bactericidal activity against Staphylococcus aureus ATCC 25923 assessed as bacterial killing at 1 to 4 times of MIC by time-kill kinetics assay", "assay_type": "functional, organism-based", "conditions": "time <= 360.0 min"}, "Escherichia coli": {"system": "Escherichia coli", "test": "Antimicrobial activity against multi-drug resistant Escherichia coli clinical isolate 804 assessed as concentration required to eliminate 90% bacteria incubated for 18 hrs by broth-microdilution method", "assay_type": "functional"}, "Staphylococcus aureus [28]": {"system": "Staphylococcus aureus", "test": "Induction of morphological changes in Staphylococcus aureus ATCC 25923 assessed as cellular fragmentation at 2 times of MIC incubated for 30 to 120 mins by SEM analysis", "assay_type": "functional, organism-based", "conditions": "time 30-120 min"}, "Klebsiella pneumoniae [29]": {"system": "Klebsiella pneumoniae", "test": "Antibacterial activity against Klebsiella pneumoniae ATCC 700603 infected in male Balb/c mouse model of pneumonia assessed as decrease in decrease in IL-1beta level in lung at 2.5 to 10 mg/kg, ip administered at 4 and 12 hrs post-infected and measured after 24 hrs by ELISA", "assay_type": "functional, organism-based", "conditions": "dose 2.5-10 mg/kg, time 20.0 hrs"}, "Staphylococcus aureus [30]": {"system": "Staphylococcus aureus", "test": "Bactericidal activity against Staphylococcus aureus ATCC 25923 at 2 times of MIC incubated for 18 hrs in presence of 20 microg/ml of chymotrypsin by absorbance based assay", "assay_type": "functional, organism-based"}, "Staphylococcus aureus [31]": {"system": "Staphylococcus aureus", "test": "Antibacterial activity against methicillin-resistant Staphylococcus aureus ATCC 33591 infected in male Balb/c mouse model of full thickness skin wound assessed as reduction in bacteria in skin wound at 1 mg/ml pre-infected with bacteria for 1 hrs followed by compound administration at 1,12 and 36 hrs post infection and measured after 10 days by photographic analysis", "assay_type": "functional, organism-based", "conditions": "time 10.0 day"}}, "note": "The source made the active and inactive calls. The rule behind the calls is not given here.", "data": [{"substance": "H-RRWFRRWRRWFR-NH2", "values": [{"measurement": "fold change (FC)", "setting": "Pseudomonas aeruginosa [1]", "value": "<=2"}, {"measurement": "Activity", "setting": "Staphylococcus aureus [2]", "value": "Active"}, {"measurement": "Activity", "setting": "Klebsiella pneumoniae [3]", "value": "Active"}, {"measurement": "EC90", "setting": "Pseudomonas aeruginosa [4]", "value": 0.78, "unit": "µM"}, {"measurement": "Activity", "setting": "Pseudomonas aeruginosa [5]", "value": "Active"}, {"measurement": "Activity", "setting": "Cell membrane [6]", "value": "Active"}, {"measurement": "Activity", "setting": "Staphylococcus aureus [7]", "value": "Active"}, {"measurement": "Activity", "setting": "Pseudomonas aeruginosa [8]", "value": "Active"}, {"measurement": "EC90", "setting": "Staphylococcus aureus [9]", "value": 3.42, "unit": "µM"}, {"measurement": "Activity", "setting": "Klebsiella pneumoniae [10]", "value": "Active"}, {"measurement": "Activity", "setting": "Staphylococcus aureus [11]", "value": "Active"}, {"measurement": "inhibition (INH)", "setting": "Staphylococcus aureus [12]", "value": 35, "unit": "%"}, {"measurement": "Activity", "setting": "Klebsiella pneumoniae [13]", "value": "inactive"}, {"measurement": "Activity", "setting": "Staphylococcus aureus [14]", "value": "inactive"}, {"measurement": "fold change (FC)", "setting": "Staphylococcus aureus [15]", "value": 32}, {"measurement": "inhibition (INH)", "setting": "Pseudomonas aeruginosa [16]", "value": ">90", "unit": "%"}, {"measurement": "Activity", "setting": "Pseudomonas aeruginosa [17]", "value": "Active"}, {"measurement": "EC90", "setting": "Staphylococcus aureus [18]", "value": 2.43, "unit": "µM"}, {"measurement": "Activity", "setting": "Pseudomonas aeruginosa [19]", "value": "Not active; Compound Binds To Lps To Exert Its Activity"}, {"measurement": "MIC", "setting": "Pseudomonas aeruginosa [20]", "value": 2, "unit": "µM"}, {"measurement": "EC90", "setting": "Staphylococcus aureus [21]", "value": 5.22, "unit": "µM"}, {"measurement": "fractional inhibitory concentration index (FICI)", "setting": "Pseudomonas aeruginosa [22]", "value": 0.5}, {"measurement": "Activity", "setting": "Pseudomonas aeruginosa [23]", "value": "Active"}, {"measurement": "Activity", "setting": "DNA", "value": "Active"}, {"measurement": "Activity", "setting": "Cell membrane [24]", "value": "Active; Lower Concentration Of Compound Is Sufficient To Disrupt Inner Membrane"}, {"measurement": "Activity", "setting": "Staphylococcus aureus [25]", "value": "Active"}, {"measurement": "fold change (FC)", "setting": "Pseudomonas aeruginosa [26]", "value": 2}, {"measurement": "Activity", "setting": "Staphylococcus aureus [27]", "value": "Time-dependent-effect"}, {"measurement": "EC90", "setting": "Escherichia coli", "value": 5.42, "unit": "µM"}, {"measurement": "Activity", "setting": "Staphylococcus aureus [28]", "value": "Active"}, {"measurement": "Activity", "setting": "Klebsiella pneumoniae [29]", "value": "Active"}, {"measurement": "Activity", "setting": "Staphylococcus aureus [30]", "value": "inactive"}, {"measurement": "Activity", "setting": "Staphylococcus aureus [31]", "value": "Active; Obvious Facilitation Of Wound Healing Not Observed"}]}]}
